Results reported in publication PMC13294191, “Oral peptide drug delivery: design of SEDDS providing a protective effect against intestinal membrane-bound enzymes” (Drug Delivery and Translational Research, 2025).
Where a SMILES comes first, the peptide text is derived from it.

Columns and labels:
[1] = biological target: T1, membrane-bound aminopeptidase N on rat intestinal mucosa (Rattus norvegicus, UniProt P15684)
T1 sequence (P15684 1-965): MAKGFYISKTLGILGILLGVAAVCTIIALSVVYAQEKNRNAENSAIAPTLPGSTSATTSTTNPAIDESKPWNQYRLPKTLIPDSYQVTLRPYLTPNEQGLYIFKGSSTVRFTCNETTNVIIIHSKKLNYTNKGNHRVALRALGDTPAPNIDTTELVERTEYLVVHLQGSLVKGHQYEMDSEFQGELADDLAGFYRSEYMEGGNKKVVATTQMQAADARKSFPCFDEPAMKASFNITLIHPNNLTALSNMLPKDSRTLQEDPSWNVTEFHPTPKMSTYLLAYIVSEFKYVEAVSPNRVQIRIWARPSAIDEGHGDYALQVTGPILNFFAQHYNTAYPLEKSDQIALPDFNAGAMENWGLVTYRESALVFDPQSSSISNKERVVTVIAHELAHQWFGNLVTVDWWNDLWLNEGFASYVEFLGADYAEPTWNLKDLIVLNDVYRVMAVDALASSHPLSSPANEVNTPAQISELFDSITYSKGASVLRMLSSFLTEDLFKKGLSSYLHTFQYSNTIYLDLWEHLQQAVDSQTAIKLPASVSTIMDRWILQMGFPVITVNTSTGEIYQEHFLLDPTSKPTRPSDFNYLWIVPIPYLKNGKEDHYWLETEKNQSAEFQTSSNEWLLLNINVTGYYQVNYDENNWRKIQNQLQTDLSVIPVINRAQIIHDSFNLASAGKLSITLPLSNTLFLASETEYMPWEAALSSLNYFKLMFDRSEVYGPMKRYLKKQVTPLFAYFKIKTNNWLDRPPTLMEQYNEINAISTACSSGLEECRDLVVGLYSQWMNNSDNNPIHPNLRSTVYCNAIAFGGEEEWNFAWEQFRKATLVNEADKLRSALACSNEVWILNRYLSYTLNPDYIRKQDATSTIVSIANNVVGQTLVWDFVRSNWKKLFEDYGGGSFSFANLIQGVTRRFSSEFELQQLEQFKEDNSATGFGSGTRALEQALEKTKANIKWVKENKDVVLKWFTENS
Description: Rat intestine was obtained freshly from male Sprague–Dawley rats (200–300 g) supplied by Janvier Labs (Saint Berthevin, France). The middle section of the small intestine was longitudinally dissected and thoroughly washed with HBS pH 6.5 to remove intestinal contents. The intestine was stored at − 20 °C in HBS until further use.
After thawing the small intestine was cut into 1 × 1 cm pieces that were placed in tubes containing 500 µL of HBS. SEDDS with dissolved HIP were emulsified in a concentration of 10% (v/v) in HBS. 500 µL of nanoemulsions were added to each tube to obtain a final concentration of 5% (v/v) SEDDS. Thereafter, samples were incubated on a thermomixer at 37 °C with continuous agitation at 400 rpm. Over a 4 h time period, 100 µL aliquots were withdrawn from each sample at predefined time intervals. To terminate the enzymatic reaction, an equal volume of methanol containing 2% (v/v) TFA was added to each aliquot. Subsequently, the concentration of tuftsin in the supernatant was quantified using HPLC.

[2] = pH 6.5
Description: The rat intestine was carefully cleaned to remove its intestinal contents and then cut into 1.5 cm sections. These sections were fixed in Ussing chambers with a surface area of 0.64 cm^2 and 1 mL of 20 mM HBS pH 6.5 was added to each acceptor chamber, while the donor chambers were filled with 1 mL of 5% (v/v) SEDDS in 20 mM HBS pH 6.5, facing the luminal side of the intestine.
The Ussing chambers were incubated in a water bath at 37 °C, and every 1 h, 100 µL aliquots were withdrawn from the acceptor chambers over a 4 h period. Withdrawn samples were replaced with pre-warmed HBS to maintain sink conditions. The concentration of permeated tuftsin in the collected aliquots was determined via HPLC and the apparent permeability coefficient [30]was subsequently calculated using the following Eq. (6):6 Papp[cms^-1]=Q[μg]/Acm^2cμgmL^-1t[s] where Papp is the apparent permeability coefficient, Q is the total amount of test substance permeated through the mucosa, A is the diffusion area of the Ussing chamber system, c is the initial concentration of tuftsin in the donor compartment and t is the total time of experiment.

[3] = biological target: T2, Aminopeptidase N from porcine kidney (Sus scrofa, UniProt P15145); test: Inhibitory activity of SEDDS and excipients towards isolated aminopeptidase N; assay type: biochemical; settings: excipient (caprylic acid 20 µL or citronellol 10 µL) solubilized with 20 µL PEG-35 castor oil in HBS pH 6.5, 500 µL; 500 µL of 41.6 mU/mL enzyme; 5 mM L-Leucine-4-nitroanilide; 1 h, 37 °C, 400 rpm; n ≥ 3
T2 construct: purchased Merck KGaA (Darmstadt, Germany); host or cells: porcine kidney (tissue-derived enzyme suspension)
T2 sequence (P15145 1-963): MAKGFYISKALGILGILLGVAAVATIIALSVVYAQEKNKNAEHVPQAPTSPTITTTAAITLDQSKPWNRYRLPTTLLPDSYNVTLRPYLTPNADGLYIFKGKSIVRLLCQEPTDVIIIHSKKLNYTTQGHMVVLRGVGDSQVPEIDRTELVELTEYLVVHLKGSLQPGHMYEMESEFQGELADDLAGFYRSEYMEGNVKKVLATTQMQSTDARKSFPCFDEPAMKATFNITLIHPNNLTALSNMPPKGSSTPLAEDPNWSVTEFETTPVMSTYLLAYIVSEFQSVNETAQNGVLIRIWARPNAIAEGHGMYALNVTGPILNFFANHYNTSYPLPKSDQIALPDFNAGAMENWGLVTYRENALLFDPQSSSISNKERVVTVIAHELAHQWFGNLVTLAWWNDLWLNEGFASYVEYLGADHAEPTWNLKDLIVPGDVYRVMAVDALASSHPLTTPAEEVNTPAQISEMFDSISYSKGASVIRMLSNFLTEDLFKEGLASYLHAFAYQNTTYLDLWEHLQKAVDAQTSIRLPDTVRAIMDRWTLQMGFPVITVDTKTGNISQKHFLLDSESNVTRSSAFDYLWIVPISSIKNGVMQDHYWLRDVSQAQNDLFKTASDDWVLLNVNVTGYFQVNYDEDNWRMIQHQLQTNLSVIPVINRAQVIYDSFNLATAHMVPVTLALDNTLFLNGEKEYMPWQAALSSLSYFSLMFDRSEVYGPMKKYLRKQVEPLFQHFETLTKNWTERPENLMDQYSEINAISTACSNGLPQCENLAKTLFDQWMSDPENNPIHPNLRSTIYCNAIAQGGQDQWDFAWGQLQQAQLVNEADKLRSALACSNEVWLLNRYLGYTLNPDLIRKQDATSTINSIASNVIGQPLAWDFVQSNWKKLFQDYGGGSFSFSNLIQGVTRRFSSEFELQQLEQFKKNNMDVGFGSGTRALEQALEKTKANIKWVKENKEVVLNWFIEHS
Description: Furthermore, a possible inhibitory effect of SEDDS and excipients on aminopeptidase N activity was investigated using the isolated enzyme, following a method previously described with slight modifications [28]. Surfactant solutions were prepared in 20 mM HBS pH 6.5 in the same concentration as they are present in SEDDS. Either 5% (v/v) SEDDS or surfactant solution were mixed in 500 µL together with further 500 µL of a 41.6 mU/mL enzyme solution in 20 mM HBS pH 6.5. L-Leucine- 4-nitroanilide was added prior to SEDDS and surfactant solution in a final concentration of 5 mM.
A 5 mM substrate solution served as the positive control, representing 100% enzyme activity. The samples were incubated on a thermomixer for 1 h at 37 °C and 400 rpm agitation. To stop the enzymatic reaction, 1 mL of methanol containing 2% (v/v) TFA were added to each sample. After centrifugation at 12,500 rpm, the concentration of 4-nitroaniline in the supernatant was quantified. The inhibitory activity was calculated using the following Eq. (5):5 Inhibitoryactivity[%]=100-Abssample/Abspositivecontrol×100

## C[C@@H](O)[C@H](N)C(=O)N[C@@H](CCCCN)C(=O)N1CCC[C@H]1C(=O)N[C@@H](CCCNC(=N)N)C(=O)O [tuftsin, Tuftsin] (H-TKPR-OH)
[1]
  Time to entire degradation of the unformulated peptide (abstract): ≤ 20 min
[2]
  Apparent permeability coefficient (Papp) of tuftsin: 0.8 × 10^–5 cm/s
  Tuftsin permeated after 4 h of cumulative permeation (% of initial tuftsin): 7%

## CC(C)=CCCC(C)CCO (stereo not shown) [citronellol]
[3]
  Inhibitory activity of single SEDDS-3 excipients towards aminopeptidase N: 18%
